From the NIST ThermoML archive (doi:10.1016/j.tca.2014.03.038)

Assays:
[1] = xn = mol fraction of the nth substance listed; conditions: 101 kPa, Liquid; for mass density: Pycnometric method; for speed of sound: multifrequency ultrasonic interferometer
[2] = 101.33 kPa, Liquid; for mass density: Pycnometric method; for speed of sound: multifrequency ultrasonic interferometer

CN(C)CCO [2-(N,N-dimethylamino)ethanol] + CCO
[1]
Conditions	mass density, 298.15 K [kg/m3]	mass density, 308.15 K [kg/m3]	mass density, 318.15 K [kg/m3]	speed of sound, 298.15 K [m/s]	speed of sound, 308.15 K [m/s]	speed of sound, 318.15 K [m/s]
x1 = 0.0929	803.31	795.34	787.23	1172.7	1141.5	1109.4
x1 = 0.1972	820.2	812.45	804.46	1206.4	1176.1	1144.1
x1 = 0.3005	834.5	826.62	818.61	1236.8	1207.1	1176.3
x1 = 0.4012	846.38	838.41	830.22	1264.9	1234.4	1205.1
x1 = 0.5051	856.62	848.64	840.29	1290.4	1259.8	1231.3
x1 = 0.6098	864.64	856.77	848.47	1309.3	1279.1	1251
x1 = 0.7086	871.01	863.28	854.97	1321	1292	1264.2
x1 = 0.8031	875.81	868.08	859.92	1329.8	1300.4	1271.8
x1 = 0.9036	879.78	871.92	863.76	1336.4	1304.5	1273.3
x1 = 1	883.34	874.99	866.37	1344.4	1309.1	1274.1

CN(C)CCO [2-(N,N-dimethylamino)ethanol]
[2]
Conditions	mass density [kg/m3]	speed of sound [m/s]
298.15 K	883.34	1344.4
308.15 K	874.99	1309.1
318.15 K	866.37	1274.1

CO [methanol] + CN(C)CCO
[1], x2 = 0
Conditions	mass density [kg/m3]	speed of sound [m/s]
298.15 K	786.74	1100.7
308.15 K	777.45	1068.2
318.15 K	768.01	1037
